Consider 9 compounds from patent US9260436B2 (Sumitomo Chemical Company, Limited, priority 2012, dated 2016).

The first assay relates to Aphis gossypii. As to the kind of experiment: Test Example 2: foot drench of cucumber seedling, then inoculation with Aphis gossypii. It is filed as in vivo. Conditions: 500 ppm, 5 ml drenched at foot of cucumber seedling, 7 days then inoculation, further 6 days. Here is the method:
On the other hand, a cucumber seedling (the second true leaf stage) planted in a plastic cup was drenched at its foot with 5 ml of the test drug solution, and kept in a greenhouse at 25° C. for 7 days. On the cucumber leaf surface was inoculated 30 Aphis gossypii (whole stage), and further kept in the greenhouse for 6 days, then the number of surviving Aphis gossypii parasitized on the leaves of the cucumber was examined, and the controlling value was calculated according to the following equation: Controlling value (%)={1−(Cb×Tai)/(Cai×Tb)}×100 wherein the symbols represent as follows: Cb: the number of insects in a non-treated section before treatment, Cai: the number of insects in a non-treated section on observation, Tb: the number of insects in a treated section before treatment, Tai: the number of insects in a treated section on observation, wherein the non-treated section refers to a section where the test drug solution prepared by diluting the formulation not containing the compound of the present invention as in Formulation Example 5 with the same amount of water as in the treated section was sprayed.
For the compound `CCS(=O)(=O)c1ccccc1-c1cnc2nc(C(F)(F)F)cn2c1`, the controlling value is given as at least 90%.

Another assay concerns Haemaphysalis longicornis. As to the kind of experiment: Test Example 11: coated screw tube contact test, Haemaphysalis longicornis nymphal ticks. It is filed as in vivo. The conditions noted are these: 48 h, 2 mg compound in 0.2 mL acetone coated on inner wall of screw tube, after 2 days, read-out: death rate. On the procedure: 2 mg of each of Compounds of Present Invention 6, 8, 10, 26, 28, 29, 33, 35 and 37 was weighed in a screw tube (Maruemu No. 5; 27×55 mm), and 0.2 mL of acetone was added thereto and sealed with a cap to dissolve the compound. The screw tube was rotated and inverted to uniformity coat the drug solution onto the whole inner wall of the tube. After removing the cap, the solution was air-dried for about 2 hours, then non-blood-sucking nymphal ticks, Haemaphysalis longicornis (5 ticks/group) were released, and the tube was sealed with the cap. After 2 days, the number of dead ticks was examined, and the death rate was calculated according to the following equation: Death rate (%)=100×(Number of dead ticks/Number of tested ticks).
On to `CCSc1ccccc1-c1ccc2nc(C(F)(F)F)cn2n1` [Compound of Present Invention 33, 6-(2-ethylsulfanylphenyl)-2-trifluoromethylimidazo[1,2-b]pyridine], for which the pest or weed control at 2 mg/tube stood at 100%. As to `CCSc1ccccc1-c1ccc2nc(C(F)(F)F)cn2c1C` [Compound of Present Invention 28, 6-(2-ethylsulfanylphenyl)-5-methyl-2-trifluoromethylimidazo [1,2-a]pyridine], the pest or weed control at 2 mg/tube was found to be 100%. On to `CCSc1ccccc1-c1ccn2cc(C(F)(F)F)nc2c1` [Compound of Present Invention 37, 7-(2-ethylsulfanylphenyl)-2-trifluoromethylimidazo[1,2-a]pyridine], for which the pest or weed control at 2 mg/tube came out at 100%.

On to `CCCNc1nc(-c2ccccc2SCC)nc2cc(C(F)(F)F)ccc12` [Compound of Present Invention 8, 2-(2-ethylsulfanylphenyl)-4-propylamino-7-trifluoromethylquinazoline], for which the pest or weed control at 2 mg/tube was determined as 100%. On to `CCCNc1nc(-c2ccccc2S(=O)(=O)CC)nc2cc(C(F)(F)F)ccc12` [Compound of Present Invention 10, 2-(2-ethylsulfonylphenyl)-4-propylamino-7-trifluoromethylquinazoline], for which the pest or weed control at 2 mg/tube stood at 100%. As for `CCSc1ccccc1-c1ccc2nc(C(F)(F)C(F)(F)F)cn2c1C` [Compound of Present Invention 29, 6-(2-ethylsulfanylphenyl)-5-methyl-2-pentafluoroethylimidazo[1,2-a]pyridine], the pest or weed control at 2 mg/tube amounted to 100%.

Consider `CCSc1ccccc1-c1cnc2nc(C(F)(F)F)cn2c1` [Compound of Present Invention 35, 6-(2-ethylsulfanylphenyl)-2-trifluoromethylimidazo[1,2-a]pyrimidine], for which the pest or weed control at 2 mg/tube was found to be 100%.

As to `CCSc1ccccc1-c1ccc2nc(C(F)(F)F)cn2c1` [Compound of Present Invention 26, 6-(2-ethylsulfanylphenyl)-2-trifluoromethylimidazo[1,2-a]pyridine], the pest or weed control at 2 mg/tube was 100%.
